Eleven compounds from patent US20220185832A1, “CD73 INHIBITORS” (BioArdis LLC, priority 2019, published 2022) can be followed below.

Broadly, the IC50 is the concentration at which inhibition is half-maximal.

The target of experiment [1] is T1, Recombinant Human 5′-Nucleotidase (CD73) (Homo sapiens, UniProt P21589).
T1 construct: CHO derived CD73 (Trp27-Lys547), with a C-terminal 6-His tag; 6-His (C); purchased R&D 5795-EN; host or cells: CHO
T1 sequence (P21589 27-547): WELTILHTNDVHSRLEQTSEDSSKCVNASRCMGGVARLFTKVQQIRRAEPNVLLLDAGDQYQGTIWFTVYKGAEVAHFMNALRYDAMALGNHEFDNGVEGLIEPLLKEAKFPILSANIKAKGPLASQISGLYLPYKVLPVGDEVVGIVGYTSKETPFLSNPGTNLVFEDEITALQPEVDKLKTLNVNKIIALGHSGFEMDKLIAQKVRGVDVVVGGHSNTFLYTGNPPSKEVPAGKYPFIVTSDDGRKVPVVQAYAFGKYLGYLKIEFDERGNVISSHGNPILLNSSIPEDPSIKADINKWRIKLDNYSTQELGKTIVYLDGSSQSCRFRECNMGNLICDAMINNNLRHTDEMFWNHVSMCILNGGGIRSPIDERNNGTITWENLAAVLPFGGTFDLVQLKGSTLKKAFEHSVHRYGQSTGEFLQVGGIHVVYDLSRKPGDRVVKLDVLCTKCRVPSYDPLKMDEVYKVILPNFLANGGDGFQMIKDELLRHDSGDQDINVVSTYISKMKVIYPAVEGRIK
The experiment can be described thus: CD73 Enzyme Assay. It counts as biochemical. The settings on record: 0.5 nM human CD73, 30 μM AMP, PiColorLock phosphate detection, OD 635 nm; read-out: Potency (IC50). The source says:
Soluble recombinant CD73 catalyzes the conversion of adenosine monophosphate (AMP) to adenosine and inorganic phosphate. The phosphate detection reagent, PiColorLock™ (Innova Bioscience, Cat #303-0125) is based on the change in absorbance of the dye malachite green in the presence of inorganic phosphate (Pi) and this property can be exploited to measure any enzyme that generates Pi. Recombinant Human 5′-Nucleotidase (CD73) (R&D #5795-EN, CHO derived CD73 (Trp27-Lys547), with a C-terminal 6-His tag) was used in the enzymatic assay. This assay was run in a 384-well plate format (Corning® NBS™ 384 well plates, Cat #3640). The basic assay procedure involves two steps: 1) Enzyme reaction: The CD73 enzyme (R&D #5795-EN) is incubated in the presence or absence of compounds. AMP (sigma, cat #01930) is added to start the kinase reaction. 2) Detection step: “Gold mix” is added to the assay system, then stabilizers are added. After incubation the absorbance of the solution is read at OD 635 nm. The recorded OD signal is proportional to the enzyme activity.
Briefly, 25 μl human CD73 (0.5 nM final concentration) in the enzymatic buffer solutions (20 mM Tris, 25 mM NaCl, 1 mM MgCl2, pH 7.5, 0.005% Tween-20) were mixed with various concentrations of the test compound (dissolved in 100% DMSO). These solutions were incubated for 15 min at 25° C., and subsequently 25 μl AMP (30 μM final concentration) was added to start the reaction. The final reaction mixture of enzyme-substrate-compound was incubated for 20 min at 37° C. Meanwhile, “Gold mix” was prepared shortly before use by adding 1/100 vol. of accelerator to the PiColorLock™ Gold reagent. 12 μL/well of the “Gold mix” was added to assay plate containing 50 μL enzyme reaction buffer and incubated at 25° C. for 5 min. 5 μL/well stabilizer was added to the assay plate and incubated at 25° C. for 30 min. The absorbance of the well solutions was measured at 635 nm on a Spark 10M instrument (TECAN).
The percent (%) inhibition at each concentration of a compound was calculated relative to the OD value in the Max and Min control wells contained within each assay plate. The Max control wells contained enzyme and substrate as 0% inhibition, and the Min control wells only contained substrate without enzyme as 100% inhibition. The concentrations and percent inhibition values for a test compound are plotted and the concentration of the compound required to achieve 50% inhibition (IC50) was determined with a four-parameter logistic dose response equation.

The target of experiment [2] is T2, Cell surface CD73 of U87 MG human glioblastoma cells (Homo sapiens, UniProt P21589).
T2 construct: Cell surface CD73 catalyzes the conversion of adenosine monophosphate (AMP) to adenosine and inorganic phosphate; endogenous in cells; host or cells: U87 MG human glioblastoma cells
T2 sequence (P21589 27-549): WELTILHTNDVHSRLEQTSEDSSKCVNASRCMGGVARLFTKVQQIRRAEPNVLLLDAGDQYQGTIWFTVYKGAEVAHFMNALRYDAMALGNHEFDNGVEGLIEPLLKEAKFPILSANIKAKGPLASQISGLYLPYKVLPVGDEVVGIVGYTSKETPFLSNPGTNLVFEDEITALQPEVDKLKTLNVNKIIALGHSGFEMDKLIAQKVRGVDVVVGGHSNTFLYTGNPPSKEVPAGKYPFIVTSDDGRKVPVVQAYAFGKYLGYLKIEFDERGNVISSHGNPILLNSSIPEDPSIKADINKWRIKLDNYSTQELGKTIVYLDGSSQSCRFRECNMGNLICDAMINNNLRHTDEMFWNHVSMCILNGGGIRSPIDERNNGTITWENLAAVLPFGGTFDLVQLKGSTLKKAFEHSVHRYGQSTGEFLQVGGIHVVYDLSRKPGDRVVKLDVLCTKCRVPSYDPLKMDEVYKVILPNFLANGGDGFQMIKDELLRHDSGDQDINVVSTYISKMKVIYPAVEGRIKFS
The experiment can be described thus: CD73 Cellular Assay. Type of experiment: cell-based. The settings on record: 5000 cells per well, 30 μM AMP, PiColorLock phosphate detection in supernatant, read-out: Potency (IC50). How it is done: Cell surface CD73 catalyzes the conversion of adenosine monophosphate (AMP) to adenosine and inorganic phosphate. U87 MG human glioblastoma cells express high level of CD73. Cells are treated with compounds in a 96-well assay plate and supernatants are collected into a 384-well detection plate. The concentration of inorganic phosphate (Pi) in the supernatants is determined using the phosphate detection reagent, PiColorLock™ (Innova Bioscience, Cat #303-0125) following the manufacturer's instructions.
Briefly, on the day of the assay, U87 MG cells were harvested and resuspended in assay buffer which consisted of 20 mM HEPES, pH=7.4, 137 mM NaCl, 5.4 mM KCl, 1.3 mM CaCl2, 4.2 mM NaHCO3 and 0.1% glucose. To test the effect of compounds on cellular CD73 enzymatic activity, 500 nL/well of compounds dissolved in DMSO were added to a 96-well TC-treated microplate (Corning #3599). Next, 80 μL/well of U87 MG cells in assay buffer were added to assay plate. After 30 minutes of incubation in an atmosphere of 5% CO2 at 37° C., 20 μL/well of 150 μM AMP (Adenosine 5′-monophosphate monohydrate, Sigma, Cat #01930) in assay buffer was added to assay plate. Final assay conditions consisted of 5000 cells per well in 0.5% DMSO and 30 μM AMP substrate. After 50 minutes of incubation in an atmosphere of 5% CO2 at 37° C., 50 μL/well of supernatant was transferred to the 384-well detection plate (Corning® NBSTM 384 well plates, Cat #3640). Meanwhile “Gold mix” was prepared shortly before use by adding 1/100 volume of accelerator to the PiColorLock™ Gold reagent. 12 μL/well of the “Gold mix” was added to detection plate containing 50 μL/well of supernatant and incubated at 25° C. for 5 minutes. 5 μL/well stabilizer was added to the detection plate and incubated at 25° C. for 30 minutes. The absorbance at 635 nm was measured on a Spark 10M instrument (TECAN).
The percent (%) inhibition at each concentration of a compound was calculated relative to the OD value in the Max and Min control wells contained within each assay plate. The Max control wells contained cells and substrate as 0% inhibition, and the Min control wells only contained cells as 100% inhibition. The concentrations and percent inhibition values for a test compound are plotted and the concentration of the compound required to achieve 50% inhibition (IC50) was determined with a four-parameter logistic dose response equation.

In the case of `O=P(O)(O)CP(=O)(O)OC[C@H]1O[C@@H](c2ccc3c(NCc4ccccc4)nc(Cl)nc3c2)[C@H](O)[C@@H]1O` [Compound 1, (((((2R,3S,4R,5S)-5-(4-(benzylamino)-2-chloroquinazolin-7-yl)-3,4-dihydroxytetrahydrofuran-2-yl)methoxy)(hydroxy)phosphoryl)methyl)phosphonic acid], the concentration for half-maximal inhibition (IC50) in experiment [1] is 10 to 99 nM; in experiment [2] it was < 10 nM.

For `O=P(O)(O)CP(=O)(O)OC[C@H]1O[C@@H](c2ccc3c(NCCc4ccccc4)nc(Cl)nc3c2)[C@H](O)[C@@H]1O` [Compound 2, (((((2R,3S,4R,5S)-5-(2-chloro-4-(phenethylamino)quinazolin-7-yl)-3,4-dihydroxytetrahydrofuran-2-yl)methoxy)(hydroxy)phosphoryl)methyl)phosphonic acid], the IC50 in experiment [1] was 10 to 99 nM; in experiment [2], < 10 nM.

As to `CN(c1nc(Cl)nc2cc([C@@H]3O[C@H](COP(=O)(O)CP(=O)(O)O)[C@@H](O)[C@H]3O)ccc12)C1CCCC1` [Compound 3, (((((2R,3S,4R,5S)-5-(2-chloro-4-(cyclopentyl(methyl)amino)quinazolin-7-yl)-3,4-dihydroxytetrahydrofuran-2-yl)methoxy)(hydroxy)phosphoryl)methyl)phosphonic acid], the IC50 in experiment [1] is 10 to 99 nM; in experiment [2] it was < 10 nM.

For the compound `O=P(O)(O)CP(=O)(O)OC[C@H]1O[C@@H](c2ccc3c(N[C@H]4CCOC4)nc(Cl)nc3c2)[C@H](O)[C@@H]1O` [Compound 37, (((((2R,3S,4R,5S)-5-(2-chloro-4-(((S)-tetrahydrofuran-3-yl)amino)quinazolin-7-yl)-3,4-dihydroxytetrahydrofuran-2-yl)methoxy)(hydroxy)phosphoryl)methyl)phosphonic acid], the IC50 in experiment [1] is 10 to 99 nM.

For `O=P(O)(O)CP(=O)(O)OC[C@H]1O[C@@H](c2ccc3c(N[C@@H]4CCOC4)nc(Cl)nc3c2)[C@H](O)[C@@H]1O` [Compound 38, (((((2R,3S,4R,5S)-5-(2-chloro-4-(((R)-tetrahydrofuran-3-yl)amino)quinazolin-7-yl)-3,4-dihydroxytetrahydrofuran-2-yl)methoxy)(hydroxy)phosphoryl)methyl)phosphonic acid], in experiment [1], the half-maximal inhibitory concentration (IC50) was in the range of 10 to 99 nM.

Take `O=P(O)(O)CP(=O)(O)OC[C@H]1O[C@@H](c2ccc3c(NC4CCCC4)nc(C4CC4)nc3c2)[C@H](O)[C@@H]1O` [Compound 39, (((((2R,3S,4R,5S)-5-(4-(cyclopentylamino)-2-cyclopropylquinazolin-7-yl)-3,4-dihydroxytetrahydrofuran-2-yl)methoxy)(hydroxy)phosphoryl)methyl)phosphonic acid]: the half-maximal inhibitory concentration (IC50) in experiment [1] lay within 10 to 99 nM.

On to `O=P(O)(O)CP(=O)(O)OC[C@H]1O[C@@H](c2cnc3c(NC4CCCC4)nc(Cl)nc3c2)[C@H](O)[C@@H]1O` [Compound 40, (((((2R,3S,4R,5S)-5-(2-chloro-4-(cyclopentylamino)pyrido[3,2-d]pyrimidin-7-yl)-3,4-dihydroxytetrahydrofuran-2-yl)methoxy)(hydroxy)phosphoryl)methyl)phosphonic acid], for which the IC50 in experiment [1] was 10 to 99 nM.

Turning to `CN(c1nc(Cl)nc2cc([C@@H]3O[C@H](COP(=O)(O)CP(=O)(O)O)[C@@H](O)[C@H]3O)cnc12)C1CCCC1` [Compound 41, (((((2R,3S,4R,5S)-5-(2-chloro-4-(cyclopentyl(methyl)amino)pyrido[3,2-d]pyrimidin-7-yl)-3,4-dihydroxytetrahydrofuran-2-yl)methoxy)(hydroxy)phosphoryl)methyl)phosphonic acid], the IC50 in experiment [1] lay within 10 to 99 nM.

`O=P(O)(O)CP(=O)(O)OC[C@H]1O[C@@H](c2ccc3c(NCC4CCC(O)CC4)nc(Cl)nc3c2)[C@H](O)[C@@H]1O` (stereo partly drawn) [Compound 42, (((((2R,3S,4R,5S)-5-(2-chloro-4-(((4-hydroxycyclohexyl)methyl)amino)quinazolin-7-yl)-3,4-dihydroxytetrahydrofuran-2-yl)methoxy)(hydroxy)phosphoryl)methyl)phosphonic acid]: the half-maximal inhibitory concentration (IC50) in experiment [1] was 10 to 99 nM.

Regarding `O=P(O)(O)CP(=O)(O)OC[C@H]1O[C@@H](c2ccc3c(NCC4CC(O)C4)nc(Cl)nc3c2)[C@H](O)[C@@H]1O` (stereo partly drawn) [Compound 44, (((((2R,3S,4R,5S)-5-(2-chloro-4-(((3-hydroxycyclobutyl)methyl)amino)quinazolin-7-yl)-3,4-dihydroxytetrahydrofuran-2-yl)methoxy)(hydroxy)phosphoryl)methyl)phosphonic acid], in experiment [1], the half-maximal inhibitory concentration (IC50) lay in the range of 10 to 99 nM.

With `O=P(O)(O)CP(=O)(O)OC[C@H]1O[C@@H](c2ccc3c(NCc4ccccc4)nc(C4CC4)nc3c2)[C@H](O)[C@@H]1O` [Compound 45, (((((2R,3S,4R,5S)-5-(4-(benzylamino)-2-cyclopropylquinazolin-7-yl)-3,4-dihydroxytetrahydrofuran-2-yl)methoxy)(hydroxy)phosphoryl)methyl)phosphonic acid], the IC50 in experiment [1] lay within 10 to 99 nM.
